Experiments:
IRAK4 [1] = target: T1, IRAK4 (Homo sapiens, UniProt Q9NWZ3); assay: IRAK4 Degradation Assay with Human Serum (Karpas299, HTRF/TR-FRET); assay type: cell-based; settings: Karpas-299 in human serum, 24 hrs treatment; for DC50: read-out: IRAK4 degradtion with human serum assay DC50; for Dmax: read-out: IRAK4 degradtion with human serum assay Dmax (%)
T1 construct: endogenous in cells; host or cells: Karpas299
T1 sequence (Q9NWZ3 1-460): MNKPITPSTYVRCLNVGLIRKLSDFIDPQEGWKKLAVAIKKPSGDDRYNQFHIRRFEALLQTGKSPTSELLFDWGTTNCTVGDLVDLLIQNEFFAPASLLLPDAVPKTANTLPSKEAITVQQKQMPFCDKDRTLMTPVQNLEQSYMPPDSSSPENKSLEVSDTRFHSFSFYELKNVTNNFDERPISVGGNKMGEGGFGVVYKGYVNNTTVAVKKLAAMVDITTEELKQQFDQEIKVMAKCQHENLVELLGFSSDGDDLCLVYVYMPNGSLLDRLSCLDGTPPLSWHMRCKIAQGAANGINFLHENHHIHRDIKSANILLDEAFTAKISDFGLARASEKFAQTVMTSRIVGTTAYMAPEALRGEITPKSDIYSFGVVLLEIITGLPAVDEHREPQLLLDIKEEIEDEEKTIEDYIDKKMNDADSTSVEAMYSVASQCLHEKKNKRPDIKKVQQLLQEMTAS
Method: IRAK4 degradation was measured using a TR-FRET-based method (Degorce, François, et al. Current chemical genomics. 2009, 3: 22). Karpas299 resuspended in Human serum AB (GEMINI, 100-512) were seeded into 96-well plates at the density of 0.2 million cells per well and then treated with a series dilution of compounds. After 24 hrs treatment, cells were pelleted via centrifugation and washed with PBS, add 40 μL lysis buffer (Cisbio) to each well after removal of the supernatant. Plates were then incubated at room temperature with shaking for 30 minutes. A total of 16 μL of cell lysates from each well of a 96-well plate was transferred to a 384-well white assay plate. IRAK4 level was quantitated using the HTRF kit as described by the manufacturer manual (Cisbio). FRET signals were measured using a PHERAstar FSX reader (BMG Labtech).
After treatment, add HTRF lysis buffer to each well; seal the plate and incubate 1 hour at room temperature on a plate shaker; Once the cells are lysed, 16 μL of cell lysate are transferred to a PE 384-well HTRF detection plate; 4 μL of pre-mixed HTRF antibodies are added to each well; Cover the plate with a plate sealer, spin 1000 rpm for 1 min, Incubate overnight at room temperature; Read on BMG PheraStar with HTRF protocol (337 nm-665 nm-620 nm).
The inhibition (degradation) percentage of the compound was calculated by the following equation: […]
The IC50 (DC50) value of a compound can be obtained by fitting the following equation
Wherein, X and Y are known values, and IC50, Hillslope, Top and Bottom are the parameters obtained by fitting with software. Y is the inhibition percentage (calculated from the equation), X is the concentration of the compound; IC50 is the concentration of the compound when the […] is reached. The smaller the IC50 value is, the stronger the inhibitory ability of the compound is. Vice versa, the higher the IC50 value is, the weaker the ability the inhibitory ability of the compound is; Hillslope represents the slope of the fitted curve, generally around 1 *; Bottom represents the minimum value of the curve obtained by data fitting, which is generally 0%±20%; Top represents the maximum value of the curve obtained by data fitting, which is generally 100%±20%. The experimental data were fitted by calculating and analyzing with Dotmatics data analysis software.

IRAK4 [2] = target: T1, IRAK4; assay: IRAK4 Degradation Assay (Karpas299, HTRF/TR-FRET); assay type: cell-based; settings: Karpas-299 cells; for Dmax: maximum percentage of degradation
Summary of the method: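 Compound potency as DC50 (IC50) came from four-parameter fits of percent IRAK4 degradation. IRAK4 was measured by HTRF (665/620 nm) in lysates of Karpas299 cells seeded at 0.2 million per well. Cells had been treated with compound dilutions for 5 or 24 h.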

[3] = 24 h treatment, read-out: IRAK4 in Karpas-299 (24 h) Dmax (%)
[4] = 24 h treatment, read-out: IRAK4 in Karpas-299 (24 h) DC50
[5] = 5 h treatment, read-out: IRAK4 in Karpas-299 (5 h) Dmax (%)
[6] = 5 h treatment, read-out: IRAK4 in Karpas-299 (5 h) DC50

Compound Cc1nc(C2CCC(=O)NC2=O)ccc1N1CCC(N2CCN(C34CCC(n5cc6cc(NC(=O)c7ccc8cc(C#N)cnn78)c(C(C)(C)O)cc6n5)(CC3)CC4)CC2)CC1 (stereo not drawn) [Example 416, 3-cyano-N-(2-(4-(4-(1-(6-(2,6-dioxopiperidin-3-yl)-2-methylpyridin-3-yl)piperidin-4-yl)piperazin-1-yl)bicyclo[2.2.2]octan-1-yl)-6-(2-hydroxypropan-2-yl)-2H-indazol-5-yl)pyrrolo[1,2-b]pyridazine-7-carboxamide] has a DC50 (IRAK4 [1]) of 9.2 nM, a Dmax (IRAK4 [1]) of 99% and a Dmax (IRAK4 [2]; [3]) of 98%. It also gave a DC50 (IRAK4 [2]; [4]) of 1.9 nM.

CC(C)(O)c1cc2nn([C@H]3CC[C@H](N4CCN(C(=O)[C@@H]5CCN(c6cc(F)c(N7CCC(=O)NC7=O)c(F)c6)C5)CC4)CC3)cc2cc1NC(=O)c1ccc2cc(C#N)cnn12 [Example 106, 3-cyano-N-(2-((1R,4r)-4-(4-((R)-1-(4-(2,4-dioxotetrahydropyrimidin-1(2H)-yl)-3,5-difluorophenyl)pyrrolidine-3-carbonyl)piperazin-1-yl)cyclohexyl)-6-(2-hydroxypropan-2-yl)-2H-indazol-5-yl)pyrrolo[1,2-b]pyridazine-7-carboxamide] was tested, and the DC50 (IRAK4 [1]) was 57 nM, the Dmax (IRAK4 [1]) was 97% and the Dmax (IRAK4 [2]; [3]) was 97%. It also gave a DC50 (IRAK4 [2]; [4]) of 2.4 nM.

CC(C)(O)c1cc2nn([C@H]3CC[C@H](N4CCN(C5CCN(c6ccc7c(c6)C(=O)N(C6CCC(=O)NC6=O)C7=O)CC5)CC4)CC3)cc2cc1NC(=O)c1ccc2cc(C#N)cnn12 (stereo partly drawn) [Example 430, 3-cyano-N-(2-((1r,4r)-4-(4-(1-(2-(2,6-dioxopiperidin-3-yl)-1,3-dioxoisoindolin-5-yl)piperidin-4-yl)piperazin-1-yl)cyclohexyl)-6-(2-hydroxypropan-2-yl)-2H-indazol-5-yl)pyrrolo[1,2-b]pyridazine 7-carboxamide] was tested, and the DC50 (IRAK4 [1]) was 15 nM, the Dmax (IRAK4 [1]) was 98% and the Dmax (IRAK4 [2]; [3]) was 97%. The DC50 (IRAK4 [2]; [4]) was 1.4 nM.

In the case of Cc1nc(C2CCC(=O)NC2=O)ccc1N1CCC(N2CCC3(CCC(n4cc5cc(NC(=O)c6ccc7cc(C#N)cnn67)c(C(C)(C)O)cc5n4)CC3)CC2)CC1 (stereo not drawn) [Example 427, 3-cyano-N-(2-(3-(1-(6-(2,6-dioxopiperidin-3-yl)-2-methylpyridin-3-yl)piperidin-4-yl)-3-azaspiro[5.5]undecan-9-yl)-6-(2-hydroxypropan-2-yl)-2H-indazol-5-yl)pyrrolo[1,2-b]pyridazine-7-carboxamide], the DC50 (IRAK4 [1]) is reported as 8.4 nM, the Dmax (IRAK4 [1]) is reported as 94% and the Dmax (IRAK4 [2]; [3]) is reported as 96%. The DC50 (IRAK4 [2]; [4]) was 2.9 nM.

CC(C)(O)c1cc2nn(C3CCC4(CC3)CCN(C3CN(c5cc(F)c([C@H]6CCC(=O)NC6=O)c(F)c5)C3)CC4)cc2cc1NC(=O)c1ccc2cc(C#N)cnn12 [Example 428, (R)-3-cyano-N-(2-(3-(1-(4-(2,6-dioxopiperidin-3-yl)-3,5-difluorophenyl)azetidin-3-yl)-3-azaspiro[5.5]undecan-9-yl)-6-(2-hydroxypropan-2-yl)-2H-indazol-5-yl)pyrrolo[1,2-b]pyridazine-7-carboxamide] showed a DC50 (IRAK4 [1]) of 33 nM, a Dmax (IRAK4 [1]) of 94% and a Dmax (IRAK4 [2]; [3]) of 93%. For the same compound, the DC50 (IRAK4 [2]; [4]) was 2.9 nM.

Compound CC(C)(O)c1cc2nn(C34CC(N5CCN(CCC6CCN(c7cc(F)c([C@H]8CCC(=O)NC8=O)c(F)c7)CC6)CC5)(C3)C4)cc2cc1NC(=O)c1ccc2cc(C#N)cnn12 [Example 349, (R)-3-cyano-N-(2-(3-(4-(2-(1-(4-(2,6-dioxopiperidin-3-yl)-3,5-difluorophenyl)piperidin-4-yl)ethyl)piperazin-1-yl)bicyclo[1.1.1]pentan-1-yl)-6-(2-hydroxypropan-2-yl)-2H-indazol-5-yl)pyrrolo[1,2-b]pyridazine-7-carboxamide] has a DC50 (IRAK4 [1]) of 7.7 nM, a Dmax (IRAK4 [1]) of 98% and a Dmax (IRAK4 [2]; [5]) of 94%. For the same compound, the DC50 (IRAK4 [2]; [6]) was 3.9 nM, the Dmax (IRAK4 [2]; [3]) was 97% and the DC50 (IRAK4 [2]; [4]) was 2.4 nM.

In the case of Cn1c(=O)n(C2CCC(=O)NC2=O)c2cccc(CCCN3CCN([C@H]4CC[C@H](n5cc6cc(NC(=O)c7ccc8cc(C#N)cnn78)c(C(C)(C)O)cc6n5)CC4)CC3)c21 (stereo partly drawn) [Example 348, 3-cyano-N-(2-((1r,4r)-4-(4-(3-(1-(2,6-dioxopiperidin-3-yl)-3-methyl-2-oxo-2,3-dihydro-1H-benzo[d]imidazol-4-yl)propyl)piperazin-1-yl)cyclohexyl)-6-(2-hydroxypropan-2-yl)-2H-indazol-5-yl)pyrrolo[1,2-b]pyridazine-7-carboxamide], the DC50 (IRAK4 [1]) is reported as 6.6 nM, the Dmax (IRAK4 [1]) is reported as 95% and the Dmax (IRAK4 [2]; [3]) is reported as 94%. It also gave a DC50 (IRAK4 [2]; [4]) of 0.4 nM.

Cc1cc(C2CCC(=O)NC2=O)c(F)cc1[C@H]1C[C@H](N2CCN([C@H]3CC[C@H](n4cc5cc(NC(=O)c6ccc7cc(C#N)cnn67)c(C(C)(C)O)cc5n4)CC3)CC2)C1 (stereo partly drawn) [Example 297, 3-cyano-N-(2-((1R,4r)-4-(4-((1r,3R)-3-(4-(2,6-dioxopiperidin-3-yl)-5-fluoro-2-methylphenyl)cyclobutyl)piperazin-1-yl)cyclohexyl)-6-(2-hydroxypropan-2-yl)-2H-indazol-5-yl)pyrrolo[1,2-b]pyridazine-7-carboxamide] was tested, and the DC50 (IRAK4 [1]) was 6 nM, the Dmax (IRAK4 [1]) was 99% and the Dmax (IRAK4 [2]; [5]) was 96%. It also gave a DC50 (IRAK4 [2]; [6]) of 3.4 nM, a Dmax (IRAK4 [2]; [3]) of 97% and a DC50 (IRAK4 [2]; [4]) of 1.4 nM.

CC(C)(O)c1cc2nn(C34CC(N5CCN(C(=O)C6CN(c7cc(F)c([C@H]8CCC(=O)NC8=O)c(F)c7)C6)CC5)(C3)C4)cc2cc1NC(=O)c1cccc(C(F)(F)F)n1 [Example 153, (R)—N-(2-(3-(4-(1-(4-(2,6-dioxopiperidin-3-yl)-3,5-difluorophenyl)azetidine-3-carbonyl)piperazin-1-yl)bicyclo[1.1.1]pentan-1-yl)-6-(2-hydroxypropan-2-yl)-2H-indazol-5-yl)-6-(trifluoromethyl)picolinamide] showed a DC50 (IRAK4 [1]) of 50 nM, a Dmax (IRAK4 [1]) of 94% and a Dmax (IRAK4 [2]; [3]) of 97%. The DC50 (IRAK4 [2]; [4]) was 1.6 nM.

Work on COc1cc2nn([C@H]3CC[C@H](N4CCN(C(=O)C5CN(c6cc(F)c([C@H]7CCC(=O)NC7=O)c(F)c6)C5)CC4)CC3)cc2cc1C(=O)Nc1cnc2cccnn12 [Example 343, 2-((1r,4r)-4-(4-(1-(4-((R)-2,6-dioxopiperidin-3-yl)-3,5-difluorophenyl)azetidine-3-carbonyl)piperazin-1-yl)cyclohexyl)-N-(imidazo[1,2-b]pyridazin-3-yl)-6-methoxy-2H-indazole-5-carboxamide] yielded a DC50 (IRAK4 [1]) of 2.3 nM, a Dmax (IRAK4 [1]) of 102% and a Dmax (IRAK4 [2]; [3]) of 97%. The DC50 (IRAK4 [2]; [4]) was 0.1 nM.

CC(C)(O)c1cc2nn([C@H]3CC[C@H](C4CCN(CC5CN(c6cc(F)c([C@H]7CCC(=O)NC7=O)c(F)c6)C5)CC4)CC3)cc2cc1NC(=O)c1ccc2cc(C#N)cnn12 [Example 390, 3-cyano-N-(2-((1r,4r)-4-(1-((1-(4-((R)-2,6-dioxopiperidin-3-yl)-3,5-difluorophenyl)azetidin-3-yl)methyl)piperidin-4-yl)cyclohexyl)-6-(2-hydroxypropan-2-yl)-2H-indazol-5-yl)pyrrolo[1,2-b]pyridazine-7-carboxamide] showed a DC50 (IRAK4 [1]) of 24 nM, a Dmax (IRAK4 [1]) of 99% and a Dmax (IRAK4 [2]; [3]) of 99%. It also gave a DC50 (IRAK4 [2]; [4]) of 2 nM.

— patent publication US20250195513A1, “DEGRADATION OF IRAK4 BY CONJUGATION OF IRAK4 INHIBITORS WITH E3 LIGASE LIGAND AND METHODS OF USE” (BeiGene, Ltd., priority 2022, published 2025)
